Assay results: article PMC4734850, “Tyrosinase inhibitory activity of flavonoids from Artocarpus heterophyllous” (Chemistry Central Journal, 2016)
Read-outs that look alike come from different tables or passages of the source.

Legend:
[1] = molecular target: T1, Tyrosinase (EC 1.14.18.1) from mushroom (Agaricus bisporus, UniProt C7FF04); test: Tyrosinase inhibitory assay (L-DOPA oxidation, absorbance at 475 nm); type: biochemical
T1 construct: purchased Sigma Chemical Co. (St. Louis, MO, USA)
Method: Tyrosinase (EC 1.14.18.1) from mushroom (3933 U/mL) and L-dihydroxyphenylalanine (L-DOPA) were obtained from Sigma Chemical Co. (St. Louis, MO, USA). […] Other chemicals were of the highest grade available.
All the samples were first dissolved in DMSO and used for the actual experiment at concentrations of […] (or µM for pure compounds). The tyrosinase inhibitory activity assay was performed as previously described by Arung et al.. The assay mixtures consisting of 1900 µL of test solution in 0.1 M phosphate buffer pH 6.8 and 100 µL of enzyme solution (15 U/mL in 0.1 M phosphate buffer pH 6.8) was prepared immediately before use. After preincubation at room temperature for 30 min, the reaction was initiated by the addition of 1000 µL of substrate solution (1.5 mM L-DOPA in 0.1 M phosphate buffer pH 6.8). The assay mixture was incubated at room temperature for 7 min, and the absorbance at 475 nm was measured with a Shimadzu UV-1800 spectrophotometer. […] Tyrosinase inhibitory activity was expressed as the percentage inhibitory of enzyme tyrosinase in the above assay system, calculated as (1 − B/A) × 100, where A and B are the activities of the enzyme without and with test material. IC50 values were calculated from the mean values of data from four determinations.

mushroom tyrosinase = molecular target: T2, mushroom tyrosinase (Agaricus bisporus, UniProt C7FF04); test: Inhibition mechanism, Lineweaver–Burk plots; type: biochemical; settings: 30 °C, pH 6.8
T2 construct: purchased Sigma Chemical Co. (St. Louis, MO, USA)
Method: Fig. 3 Lineweaver–Burk plots for type of inhibition of mushroom tyrosinase (10 U/mL) by artocaepin E (1) for the catalysis of L-DOPA (0.2, 0.3, 0.4, 0.5, and 0.6 mM) at 30 °C, pH 6.8. Concentration of these compounds for curves I0.0, I5.0, I7.0, and I10.0 were 0.0, 5.0, 7.0, and 10.0 μM, respectively. The inset represents the plot of these compounds for determining the inhibition constant (Ki). The line is drawn using a linear lest squares fit
The dependence of absorbance (475 nm) on time was measured, and the reaction rate was calculated for all reactions (uninhibited and inhibited). Then, a Lineweaver–Burk plot was constructed, and Km and Vm values were calculated. Each measurement was performed in duplicate.

[2] = mushroom tyrosinase, substrate L-DOPA, 0.1 M phosphate buffer pH 6.8, room temperature, read-out: Tyrosinase inhibitory activity IC50

T1 sequence (C7FF04 1-392 limits assumed): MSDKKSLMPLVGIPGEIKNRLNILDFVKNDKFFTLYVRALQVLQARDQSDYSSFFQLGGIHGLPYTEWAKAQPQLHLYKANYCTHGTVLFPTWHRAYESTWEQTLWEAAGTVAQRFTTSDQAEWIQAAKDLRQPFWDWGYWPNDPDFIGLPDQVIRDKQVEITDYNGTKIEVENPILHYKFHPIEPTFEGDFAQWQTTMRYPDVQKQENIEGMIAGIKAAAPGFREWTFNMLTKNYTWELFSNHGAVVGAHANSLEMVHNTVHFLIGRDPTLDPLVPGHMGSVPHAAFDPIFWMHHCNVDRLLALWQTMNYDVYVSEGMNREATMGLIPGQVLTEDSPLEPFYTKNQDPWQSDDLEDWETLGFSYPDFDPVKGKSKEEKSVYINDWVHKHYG
T2 sequence (C7FF04 1-392 limits assumed): as above

Structure (SMILES) | IC50 [1, 2] [µM] | further results
O=C1CC(c2ccc(O)cc2O)Oc2cc(O)cc(O)c21 (stereo not shown) [Compound 6, steppogenin] | 7.5 ± 0.5 | inhibitory activity relative to 4 ([1]; ratio of tyrosinase IC50 values, 6 vs 4): 3.75 fold
C/C(=C\Cc1c(O)cc2oc(-c3ccc(O)cc3O)cc(=O)c2c1O)COC(=O)/C=C/c1ccc(O)cc1 [Compound 1, artocaepin E] | 6.7 ± 0.8 | type of inhibition (mushroom tyrosinase; Lineweaver–Burk plots, L-DOPA substrate): competitive inhibition; Ki (mushroom tyrosinase; mushroom tyrosinase 10 U/mL, L-DOPA 0.2-0.6 mM, read-out: inhibition constant (Ki)): 6.23 µM
O=C1c2c(O)cc(O)cc2O[C@H](c2ccc(O)cc2O)[C@H]1O [Compound 7, dihydromorin] | > 50 | –
COc1cc(O)c2c(c1)O[C@H](c1ccc(O)cc1O)CC2=O [Compound 4, artocarpanone] | 2 ± 0.1 | –
O=c1cc(-c2ccc(O)cc2O)oc2cc(O)cc(O)c12 [Compound 3, norartocarpetin] | > 50 | –
C/C(=C\Cc1c(O)ccc2c1O[C@H](c1ccc(O)cc1)CC2=O)CO [Compound 2, artocaepin F] | > 50 | –
O=C1C[C@@H](c2ccc(O)cc2)Oc2cc(O)ccc21 [Compound 5, liquiritigenin] | – | IC50 [1]: 22 ± 2.5 µM
